Measurements as given in ChEMBL document CHEMBL1909046, “DrugMatrix in vitro pharmacology data”.

Columns and labels:
Estrogen receptor = biological target: T1, Estrogen receptor (Homo sapiens, UniProt P03372); details: sf9; note: in other assays of this panel Not Active means under 50% inhibition at 10 µM
T1 sequence (P03372 whole entry): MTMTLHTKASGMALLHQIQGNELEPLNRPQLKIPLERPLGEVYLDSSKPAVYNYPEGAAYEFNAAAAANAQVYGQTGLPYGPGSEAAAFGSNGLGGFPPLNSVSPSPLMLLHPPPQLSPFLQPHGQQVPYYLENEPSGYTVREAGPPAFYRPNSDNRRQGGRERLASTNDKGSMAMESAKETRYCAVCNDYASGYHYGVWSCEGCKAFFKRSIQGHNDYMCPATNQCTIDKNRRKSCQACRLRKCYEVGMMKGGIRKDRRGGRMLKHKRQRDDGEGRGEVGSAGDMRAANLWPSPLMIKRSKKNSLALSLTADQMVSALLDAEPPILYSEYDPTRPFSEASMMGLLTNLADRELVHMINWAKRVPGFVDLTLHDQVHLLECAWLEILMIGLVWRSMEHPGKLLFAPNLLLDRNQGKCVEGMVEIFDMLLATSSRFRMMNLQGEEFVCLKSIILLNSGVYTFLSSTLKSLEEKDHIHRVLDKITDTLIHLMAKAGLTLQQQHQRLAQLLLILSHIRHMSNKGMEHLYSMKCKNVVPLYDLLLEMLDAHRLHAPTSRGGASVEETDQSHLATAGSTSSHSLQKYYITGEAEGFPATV

[1] = biological target: T2, Polyunsaturated fatty acid lipoxygenase ALOX15 (Oryctolagus cuniculus, UniProt P12530); test: biochemical; assay type: tissue-based, Reticulocytes; details: reticulocytes;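 note: inhibition of 15-lipoxygenase enzyme activity measured with linoleic acid as the substrate; in other assays of this panel Not Active means under 50% inhibition at 10 µM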
T2 sequence (P12530 whole entry): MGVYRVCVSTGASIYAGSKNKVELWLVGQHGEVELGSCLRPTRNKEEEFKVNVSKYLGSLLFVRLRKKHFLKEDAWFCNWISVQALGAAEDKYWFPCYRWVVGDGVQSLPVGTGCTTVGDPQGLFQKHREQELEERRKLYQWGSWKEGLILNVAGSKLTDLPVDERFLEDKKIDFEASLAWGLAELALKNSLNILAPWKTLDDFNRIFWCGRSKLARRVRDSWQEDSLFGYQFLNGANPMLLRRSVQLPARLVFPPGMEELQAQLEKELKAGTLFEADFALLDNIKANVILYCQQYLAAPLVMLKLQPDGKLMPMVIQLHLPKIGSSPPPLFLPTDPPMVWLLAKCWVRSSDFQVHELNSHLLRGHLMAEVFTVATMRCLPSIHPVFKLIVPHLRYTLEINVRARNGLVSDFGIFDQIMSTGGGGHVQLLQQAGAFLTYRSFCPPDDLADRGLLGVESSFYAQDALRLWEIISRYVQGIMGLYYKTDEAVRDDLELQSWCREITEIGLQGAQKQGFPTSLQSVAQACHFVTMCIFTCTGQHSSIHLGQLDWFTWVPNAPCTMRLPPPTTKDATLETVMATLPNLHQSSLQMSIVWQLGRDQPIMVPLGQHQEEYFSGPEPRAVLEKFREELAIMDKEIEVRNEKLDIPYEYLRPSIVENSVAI

Nitric oxide synthase 1 = Nitric oxide synthase 1 (Rattus norvegicus, UniProt P29476); assay type: tissue-based, Cerebellum; note: in other assays of this panel Not Active means under 50% inhibition at 10 µM
Chain of Nitric oxide synthase 1 (P29476 whole entry): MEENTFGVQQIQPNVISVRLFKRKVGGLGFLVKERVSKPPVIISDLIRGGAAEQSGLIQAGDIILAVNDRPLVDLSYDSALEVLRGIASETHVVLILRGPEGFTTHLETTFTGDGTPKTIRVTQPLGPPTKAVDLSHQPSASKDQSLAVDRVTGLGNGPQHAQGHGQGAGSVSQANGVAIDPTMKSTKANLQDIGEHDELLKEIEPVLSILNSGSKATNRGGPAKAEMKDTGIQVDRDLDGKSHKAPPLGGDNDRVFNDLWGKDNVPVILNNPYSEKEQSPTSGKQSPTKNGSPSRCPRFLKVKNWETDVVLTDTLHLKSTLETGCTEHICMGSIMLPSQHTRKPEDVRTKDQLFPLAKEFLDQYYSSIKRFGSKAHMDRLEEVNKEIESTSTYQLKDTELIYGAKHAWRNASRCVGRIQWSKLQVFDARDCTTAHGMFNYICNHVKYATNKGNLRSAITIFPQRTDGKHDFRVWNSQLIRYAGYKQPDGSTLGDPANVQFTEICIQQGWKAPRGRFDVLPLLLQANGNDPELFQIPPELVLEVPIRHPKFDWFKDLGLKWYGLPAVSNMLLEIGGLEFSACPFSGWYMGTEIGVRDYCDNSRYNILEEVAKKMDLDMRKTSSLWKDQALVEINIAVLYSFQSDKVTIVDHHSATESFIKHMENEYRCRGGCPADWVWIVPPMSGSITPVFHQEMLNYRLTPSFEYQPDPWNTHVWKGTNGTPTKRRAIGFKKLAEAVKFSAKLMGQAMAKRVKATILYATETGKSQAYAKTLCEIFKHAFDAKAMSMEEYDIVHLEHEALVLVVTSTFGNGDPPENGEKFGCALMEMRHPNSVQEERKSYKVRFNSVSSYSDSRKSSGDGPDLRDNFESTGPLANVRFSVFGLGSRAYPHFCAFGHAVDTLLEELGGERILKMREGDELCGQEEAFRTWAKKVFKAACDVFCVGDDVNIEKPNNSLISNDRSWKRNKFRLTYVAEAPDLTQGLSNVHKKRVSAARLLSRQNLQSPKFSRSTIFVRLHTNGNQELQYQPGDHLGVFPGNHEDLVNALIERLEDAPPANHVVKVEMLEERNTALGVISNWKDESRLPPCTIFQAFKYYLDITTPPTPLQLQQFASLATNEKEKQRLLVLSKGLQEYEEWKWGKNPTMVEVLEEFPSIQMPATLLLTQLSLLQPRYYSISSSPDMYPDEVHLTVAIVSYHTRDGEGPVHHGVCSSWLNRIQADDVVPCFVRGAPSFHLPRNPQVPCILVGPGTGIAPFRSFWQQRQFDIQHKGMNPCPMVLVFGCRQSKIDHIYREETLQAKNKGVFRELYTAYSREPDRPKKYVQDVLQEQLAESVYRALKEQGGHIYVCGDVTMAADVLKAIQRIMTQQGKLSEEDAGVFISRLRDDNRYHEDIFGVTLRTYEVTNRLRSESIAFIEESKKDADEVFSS

[2] = DRUGMATRIX: Phorbol Ester radioligand binding (ligand: [3H] PDBu); assay type: cell membranes, Mus musculus, ICR, Brain, Membrane; details: Not Active = under 50% inhibition at 10 µM
Interstitial collagenase = biological target: T3, Interstitial collagenase (Homo sapiens, UniProt P03956); test: biochemical; assay type: tissue-based, Rheumatoid synovial fibroblasts;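 note: MMP-1 enzyme inhibition assay using a peptide substrate; in other assays of this panel Not Active means under 50% inhibition at 10 µM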
T3 sequence (P03956 whole entry): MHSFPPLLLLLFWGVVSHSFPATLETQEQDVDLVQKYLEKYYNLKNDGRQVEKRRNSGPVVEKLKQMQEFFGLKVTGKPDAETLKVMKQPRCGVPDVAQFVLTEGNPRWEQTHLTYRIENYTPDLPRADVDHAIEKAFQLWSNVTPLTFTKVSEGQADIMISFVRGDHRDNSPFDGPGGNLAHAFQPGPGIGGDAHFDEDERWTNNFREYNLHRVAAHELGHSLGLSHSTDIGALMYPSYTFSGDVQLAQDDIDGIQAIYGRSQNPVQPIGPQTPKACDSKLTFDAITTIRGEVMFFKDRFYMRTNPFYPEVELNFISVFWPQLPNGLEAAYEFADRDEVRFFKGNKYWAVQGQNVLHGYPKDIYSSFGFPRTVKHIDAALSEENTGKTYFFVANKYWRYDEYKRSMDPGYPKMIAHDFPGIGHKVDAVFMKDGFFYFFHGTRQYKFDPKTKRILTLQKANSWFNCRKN

[3] = DRUGMATRIX: Platelet-Derived Growth Factor (PDGF) radioligand binding (ligand: [125I] PDGF); assay type: cell-based; details: nih3t3; Not Active = under 50% inhibition at 10 µM
[4] = DRUGMATRIX: Calcium Channel Type L, Benzothiazepine radioligand binding (ligand: [3H] Diltiazem); assay type: cell membranes, Rattus norvegicus, Wistar, Brain, Membrane; details: Not Active = under 50% inhibition at 10 µM
Vasopressin V1a receptor = Vasopressin V1a receptor (Homo sapiens, UniProt P37288); assay type: cell membranes, Membrane; details: hek293; note: in other assays of this panel Not Active means under 50% inhibition at 10 µM
Chain of Vasopressin V1a receptor (P37288 whole entry): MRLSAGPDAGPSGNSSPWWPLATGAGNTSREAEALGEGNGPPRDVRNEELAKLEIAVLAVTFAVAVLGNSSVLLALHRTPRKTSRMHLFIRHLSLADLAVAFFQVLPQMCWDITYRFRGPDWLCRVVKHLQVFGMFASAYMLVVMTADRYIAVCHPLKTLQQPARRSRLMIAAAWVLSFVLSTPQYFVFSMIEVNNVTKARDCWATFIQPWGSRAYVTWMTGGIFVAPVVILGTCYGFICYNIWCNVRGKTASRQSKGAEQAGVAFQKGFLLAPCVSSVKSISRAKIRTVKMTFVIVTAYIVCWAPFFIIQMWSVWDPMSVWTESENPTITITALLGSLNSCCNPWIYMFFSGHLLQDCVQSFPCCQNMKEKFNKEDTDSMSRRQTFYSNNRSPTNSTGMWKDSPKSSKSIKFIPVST

Cc1c(C)c2c(c(C)c1O)CCC(C)(COc1ccc(CC3SC(=O)NC3=O)cc1)O2 (stereo unspecified) [TROGLITAZONE]
Not Active: IC50 (Estrogen receptor) | IC50 [1] | IC50 (Nitric oxide synthase 1) | IC50 [2] | Ki [2] | IC50 (Interstitial collagenase) | IC50 [3] | Ki [3] | IC50 [4] | Ki [4] | IC50 (Vasopressin V1a receptor)

N[C@@H]1[C@H]2CN(c3nc4c(cc3F)c(=O)c(C(=O)O)cn4-c3ccc(F)cc3F)C[C@@H]12 [TROVAFLOXACIN]
Not Active: IC50 (Estrogen receptor) | IC50 [1] | IC50 (Nitric oxide synthase 1) | IC50 [2] | Ki [2] | IC50 (Interstitial collagenase) | IC50 [3] | Ki [3] | IC50 [4] | Ki [4] | IC50 (Vasopressin V1a receptor)

N#CC(C#N)=Cc1ccc(O)c(O)c1 [TYRPHOSTIN 23]
Not Active: IC50 (Estrogen receptor) | IC50 [1] | IC50 (Nitric oxide synthase 1) | IC50 [2] | Ki [2] | IC50 (Interstitial collagenase) | IC50 [3] | Ki [3] | IC50 [4] | Ki [4] | IC50 (Vasopressin V1a receptor)

CC[C@]1(O)C[C@H]2CN(CCc3c([nH]c4ccccc34)[C@@](C(=O)OC)(c3cc4c(cc3OC)N(C=O)[C@H]3[C@@](O)(C(=O)OC)[C@H](OC(C)=O)[C@]5(CC)C=CCN6CC[C@]43[C@@H]65)C2)C1 [VINCRISTINE]
Not Active: IC50 (Estrogen receptor) | IC50 [1] | IC50 (Nitric oxide synthase 1) | IC50 [2] | Ki [2] | IC50 (Interstitial collagenase) | IC50 [3] | Ki [3] | IC50 [4] | Ki [4] | IC50 (Vasopressin V1a receptor)

CCCOc1ccccc1-c1nc2nn[nH]c2c(=O)[nH]1 [ZAPRINAST]
Not Active: IC50 (Estrogen receptor) | IC50 [1] | IC50 (Nitric oxide synthase 1) | IC50 [2] | Ki [2] | IC50 (Interstitial collagenase) | IC50 [3] | Ki [3] | IC50 [4] | Ki [4] | IC50 (Vasopressin V1a receptor)

SODIUM NITROPRUSSIDE
Not Active: IC50 (Estrogen receptor) | Ki (Estrogen receptor) | IC50 [1] | Ki [1] | IC50 (Nitric oxide synthase 1) | Ki (Nitric oxide synthase 1) | IC50 [2] | Ki [2] | IC50 (Interstitial collagenase) | Ki (Interstitial collagenase) | IC50 [3] | Ki [3] | IC50 [4] | Ki [4] | IC50 (Vasopressin V1a receptor) | Ki (Vasopressin V1a receptor)
